Assay [1] deals with Transcription factor p65 (Homo sapiens) (UniProt Q04206). Put plainly: Upregulation of NF-kB p65 phosphorylation (unknown origin) expressed in human AD293 cells at 10 uM after 3 hrs by Western blot analysis. Type of assay: cell-based. Background: A western blot detects proteins with antibodies after separation by electrophoresis.
Assay [2] has as its target T1, Toll-like receptor 4 (Homo sapiens, UniProt O00206). Kind of assay: Antagonist activity at TLR4 in human THP1 cells assessed as inhibition of LPS-stimulated NFkappaB p65 protein expression at 10 uM after 3 hrs by Western blot analysis. It counts as cell-based.
For assay [3], the target named is Toll-like receptor 3 (Homo sapiens) (UniProt O15455). Kind of assay: Antagonist activity at TLR3 in human THP1 cells assessed as inhibition of poly IC-stimulated RANTES mRNA level at 10 uM after 16 hrs by RT-PCR method. Type of assay: cell-based.
Chain of Toll-like receptor 3 (Homo sapiens) (O15455 whole entry): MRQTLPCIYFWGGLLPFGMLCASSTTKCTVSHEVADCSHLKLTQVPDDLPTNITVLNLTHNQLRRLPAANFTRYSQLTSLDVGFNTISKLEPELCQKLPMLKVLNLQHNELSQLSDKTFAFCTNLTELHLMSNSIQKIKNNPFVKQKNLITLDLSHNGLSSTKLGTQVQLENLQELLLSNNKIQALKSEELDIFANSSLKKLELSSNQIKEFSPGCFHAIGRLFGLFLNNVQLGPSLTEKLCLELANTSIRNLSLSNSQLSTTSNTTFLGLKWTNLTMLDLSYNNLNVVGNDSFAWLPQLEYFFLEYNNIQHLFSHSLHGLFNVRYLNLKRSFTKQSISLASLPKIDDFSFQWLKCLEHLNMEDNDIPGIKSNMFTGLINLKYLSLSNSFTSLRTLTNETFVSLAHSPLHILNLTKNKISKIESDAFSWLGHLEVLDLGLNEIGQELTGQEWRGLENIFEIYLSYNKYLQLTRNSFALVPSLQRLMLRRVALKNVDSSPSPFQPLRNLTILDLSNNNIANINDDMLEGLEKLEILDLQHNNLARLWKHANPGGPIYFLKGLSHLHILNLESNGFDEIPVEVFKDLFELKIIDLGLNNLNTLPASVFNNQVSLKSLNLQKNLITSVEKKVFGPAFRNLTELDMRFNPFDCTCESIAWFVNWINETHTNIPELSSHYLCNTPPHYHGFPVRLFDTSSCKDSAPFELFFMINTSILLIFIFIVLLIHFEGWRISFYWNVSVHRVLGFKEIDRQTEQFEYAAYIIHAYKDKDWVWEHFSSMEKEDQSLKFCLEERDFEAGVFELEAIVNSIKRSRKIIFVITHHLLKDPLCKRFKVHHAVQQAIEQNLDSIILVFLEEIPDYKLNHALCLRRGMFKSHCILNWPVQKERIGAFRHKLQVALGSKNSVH
In assay [4] the target is T1, Toll-like receptor 4. Kind of assay: Antagonist activity at TLR4 in human THP1 cells assessed as inhibition of LPS-stimulated IL-6 mRNA level at 10 uM after 16 hrs by RT-PCR method. It counts as cell-based.
The test system of assay [5] is THP-1. Kind of assay: Upregulation of IKKalpha protein expression in LPS-stimulated human THP1 cells at 10 uM after 3 hrs by Western blot analysis. It counts as functional, cell-based.
The subject of assay [6] is THP-1. Kind of assay: Downregulation of IkBalpha protein expression in human THP1 cells at 10 uM after 3 hrs by Western blot analysis. It counts as functional, cell-based.
Assay [7] deals with Toll-like receptor 3 (Homo sapiens) (UniProt O15455). Put plainly: Antagonist activity at TLR3 in human THP1 cells assessed as inhibition of poly IC-stimulated IL-1beta level at 10 uM by bead based immunoassay. Type of assay: cell-based.
Assay [8] concerns the target Toll-like receptor 2 (Homo sapiens) (UniProt O60603). Kind of assay: Antagonist activity at TLR2 in human THP1 cells assessed as inhibition of PGN-stimulated IL-6 mRNA level at 10 uM after 16 hrs by RT-PCR method. Type of assay: cell-based.
Assay [9] addresses T2, Nuclear factor NF-kappa-B p100 subunit (Homo sapiens) (UniProt Q00653).
T2 sequence (whole entry): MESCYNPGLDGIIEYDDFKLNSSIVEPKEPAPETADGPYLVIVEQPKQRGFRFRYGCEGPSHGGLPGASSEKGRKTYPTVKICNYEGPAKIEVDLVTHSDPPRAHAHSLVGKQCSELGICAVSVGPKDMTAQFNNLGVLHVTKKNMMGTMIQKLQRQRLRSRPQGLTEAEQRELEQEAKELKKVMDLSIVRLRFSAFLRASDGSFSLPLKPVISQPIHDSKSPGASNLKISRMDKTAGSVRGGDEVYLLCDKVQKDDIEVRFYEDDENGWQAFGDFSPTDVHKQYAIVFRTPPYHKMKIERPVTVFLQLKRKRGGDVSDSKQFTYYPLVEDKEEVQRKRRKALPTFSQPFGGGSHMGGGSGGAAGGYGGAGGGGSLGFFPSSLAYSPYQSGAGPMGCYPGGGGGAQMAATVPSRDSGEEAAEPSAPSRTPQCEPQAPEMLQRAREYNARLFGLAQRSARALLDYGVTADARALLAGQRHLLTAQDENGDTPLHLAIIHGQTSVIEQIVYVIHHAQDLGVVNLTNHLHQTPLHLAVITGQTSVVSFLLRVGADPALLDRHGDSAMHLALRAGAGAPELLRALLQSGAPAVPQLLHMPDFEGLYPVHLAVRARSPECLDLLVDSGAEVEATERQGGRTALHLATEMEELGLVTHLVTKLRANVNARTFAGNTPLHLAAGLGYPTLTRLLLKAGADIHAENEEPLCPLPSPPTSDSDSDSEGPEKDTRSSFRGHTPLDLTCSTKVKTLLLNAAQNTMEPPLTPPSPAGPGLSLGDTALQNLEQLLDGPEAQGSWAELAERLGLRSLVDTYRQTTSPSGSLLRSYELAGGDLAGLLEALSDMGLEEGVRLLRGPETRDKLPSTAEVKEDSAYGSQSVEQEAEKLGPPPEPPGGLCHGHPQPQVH
Put plainly: Effect on p100 phosphorylation in human THP1 cells at 10 uM after 3 hrs by Western blot analysis. It counts as cell-based.

The target of assay [10] is T1, Toll-like receptor 4. Kind of assay: Antagonist activity at TLR4 in human THP1 cells assessed as inhibition of LPS-stimulated NF-kB canonical signaling pathway by measuring decrease in IkBalpha phosphorylation at 10 uM after 3 hrs by Western blot analysis. It counts as cell-based.
The target in assay [11] is Transcription factor p65 (Homo sapiens) (UniProt Q04206). Kind of assay: Inhibition of TNFalpha-stimulated NF-kB p65 activation (unknown origin) expressed in human AD293 cells assessed as nuclear translocation of p65 at 10 uM after 3 hrs by confocal microscopic method. Type of assay: cell-based.
In assay [12] the target is Toll-like receptor 3 (Homo sapiens) (UniProt O15455). Kind of assay: Antagonist activity at TLR3 in human THP1 cells assessed as inhibition of poly IC-stimulated IL-6 mRNA level at 10 uM after 16 hrs by RT-PCR method. Type of assay: cell-based.
For assay [13], the system named is THP-1. Kind of assay: Downregulation of IkBalpha protein expression in LPS-stimulated human THP1 cells at 10 uM after 3 hrs by Western blot analysis. Type of assay: functional, cell-based.
Assay [14] deals with Toll-like receptor 2 (Homo sapiens) (UniProt O60603). Put plainly: Antagonist activity at TLR2 in human THP1 cells assessed as inhibition of PGN-stimulated RANTES mRNA level at 10 uM after 16 hrs by RT-PCR method. Type of assay: cell-based.
Chain of Toll-like receptor 2 (Homo sapiens) (O60603 whole entry): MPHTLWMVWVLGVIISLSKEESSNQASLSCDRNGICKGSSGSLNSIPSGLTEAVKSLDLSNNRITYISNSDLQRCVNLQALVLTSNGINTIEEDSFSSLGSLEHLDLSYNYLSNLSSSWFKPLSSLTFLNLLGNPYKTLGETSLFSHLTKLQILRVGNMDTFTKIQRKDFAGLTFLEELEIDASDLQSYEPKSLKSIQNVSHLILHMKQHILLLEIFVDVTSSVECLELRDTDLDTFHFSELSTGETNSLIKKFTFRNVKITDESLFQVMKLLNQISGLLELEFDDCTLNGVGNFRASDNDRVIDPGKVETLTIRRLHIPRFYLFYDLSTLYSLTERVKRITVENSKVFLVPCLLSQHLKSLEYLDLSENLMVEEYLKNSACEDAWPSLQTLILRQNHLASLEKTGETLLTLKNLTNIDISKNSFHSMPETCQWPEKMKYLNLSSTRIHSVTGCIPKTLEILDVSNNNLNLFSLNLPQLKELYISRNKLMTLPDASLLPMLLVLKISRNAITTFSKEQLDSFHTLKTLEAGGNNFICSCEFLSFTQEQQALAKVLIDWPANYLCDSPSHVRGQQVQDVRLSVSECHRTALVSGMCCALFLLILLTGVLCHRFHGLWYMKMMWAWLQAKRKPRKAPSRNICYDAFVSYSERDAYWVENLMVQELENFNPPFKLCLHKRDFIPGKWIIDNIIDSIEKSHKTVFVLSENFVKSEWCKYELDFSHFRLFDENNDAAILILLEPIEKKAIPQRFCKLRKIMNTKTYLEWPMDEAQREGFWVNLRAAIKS
Assay [15] addresses T1, Toll-like receptor 4. Kind of assay: Antagonist activity at TLR4 in human THP1 cells assessed as inhibition of LPS-stimulated RANTES mRNA level at 10 uM after 16 hrs by RT-PCR method. It counts as cell-based.
The target in assay [16] is T1, Toll-like receptor 4. Put plainly: Antagonist activity at TLR4 in human THP1 cells assessed as inhibition of LPS-stimulated NF-kB non-canonical signaling pathway by measuring decrease in p100/p52 phosphorylation at 10 uM after 3 hrs by Western blot analysis. Type of assay: cell-based.
Assay [17] addresses T1, Toll-like receptor 4. Kind of assay: Antagonist activity at TLR4 in human THP1 cells assessed as inhibition of LPS-stimulated IL-6 mRNA level after 16 hrs by RT-PCR method. Type of assay: cell-based.
For assay [18], the target named is Toll-like receptor 2 (Homo sapiens) (UniProt O60603). Kind of assay: Antagonist activity at TLR2 in human THP1 cells assessed as inhibition of PGN-stimulated IL-6 mRNA level after 16 hrs by RT-PCR method. Type of assay: cell-based.
Assay [19] deals with T1, Toll-like receptor 4. Put plainly: Antagonist activity at TLR4 in human THP1 cells assessed as inhibition of LPS-stimulated RANTES mRNA level after 16 hrs by RT-PCR method. It counts as cell-based.
For assay [20], the target named is Toll-like receptor 2 (Homo sapiens) (UniProt O60603). Kind of assay: Antagonist activity at TLR2 in human THP1 cells assessed as inhibition of PGN-stimulated RANTES mRNA level after 16 hrs by RT-PCR method. It counts as cell-based.
Assay [21] has as its target Toll-like receptor 3 (Homo sapiens) (UniProt O15455). Put plainly: Antagonist activity at TLR3 in human THP1 cells assessed as inhibition of poly IC-stimulated IL-6 mRNA level after 16 hrs by RT-PCR method. It counts as cell-based.
The target is the same in assay [22]. Put plainly: Antagonist activity at TLR3 in human THP1 cells assessed as inhibition of poly IC-stimulated RANTES mRNA level after 16 hrs by RT-PCR method. It counts as cell-based.

Experimental findings from ChEMBL document CHEMBL4033685, “C21-steroidal pregnane sapogenins and their derivatives as anti-inflammatory agents” (Bioorg Med Chem, 2017) are described below.

Each structure is given as a SMILES string. Calls of active or inactive are those of the source. No cut-off for these calls is given here.

T1 sequence (O00206 whole entry): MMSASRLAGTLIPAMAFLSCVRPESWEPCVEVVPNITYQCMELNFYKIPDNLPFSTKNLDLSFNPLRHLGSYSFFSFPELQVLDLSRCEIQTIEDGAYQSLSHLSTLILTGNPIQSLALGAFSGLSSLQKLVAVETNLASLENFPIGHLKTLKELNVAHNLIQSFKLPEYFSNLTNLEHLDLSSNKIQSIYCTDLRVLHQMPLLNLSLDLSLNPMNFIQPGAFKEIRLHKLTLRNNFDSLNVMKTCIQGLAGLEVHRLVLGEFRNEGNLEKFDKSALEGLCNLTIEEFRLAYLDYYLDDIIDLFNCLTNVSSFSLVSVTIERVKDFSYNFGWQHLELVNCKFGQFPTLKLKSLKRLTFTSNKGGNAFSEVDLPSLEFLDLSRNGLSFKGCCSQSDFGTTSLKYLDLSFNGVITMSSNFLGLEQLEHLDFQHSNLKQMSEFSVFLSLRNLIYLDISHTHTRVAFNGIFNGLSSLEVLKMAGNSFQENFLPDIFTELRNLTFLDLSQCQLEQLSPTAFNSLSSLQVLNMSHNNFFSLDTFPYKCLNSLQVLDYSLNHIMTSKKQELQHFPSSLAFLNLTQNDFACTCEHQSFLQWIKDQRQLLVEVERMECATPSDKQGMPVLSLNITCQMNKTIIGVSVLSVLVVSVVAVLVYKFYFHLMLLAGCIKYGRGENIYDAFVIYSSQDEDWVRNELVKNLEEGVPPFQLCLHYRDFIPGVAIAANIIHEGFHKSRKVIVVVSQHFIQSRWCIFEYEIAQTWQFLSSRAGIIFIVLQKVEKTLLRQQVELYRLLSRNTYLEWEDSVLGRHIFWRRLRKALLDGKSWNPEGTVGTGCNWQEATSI
Chain of Transcription factor p65 (Homo sapiens) (Q04206 whole entry): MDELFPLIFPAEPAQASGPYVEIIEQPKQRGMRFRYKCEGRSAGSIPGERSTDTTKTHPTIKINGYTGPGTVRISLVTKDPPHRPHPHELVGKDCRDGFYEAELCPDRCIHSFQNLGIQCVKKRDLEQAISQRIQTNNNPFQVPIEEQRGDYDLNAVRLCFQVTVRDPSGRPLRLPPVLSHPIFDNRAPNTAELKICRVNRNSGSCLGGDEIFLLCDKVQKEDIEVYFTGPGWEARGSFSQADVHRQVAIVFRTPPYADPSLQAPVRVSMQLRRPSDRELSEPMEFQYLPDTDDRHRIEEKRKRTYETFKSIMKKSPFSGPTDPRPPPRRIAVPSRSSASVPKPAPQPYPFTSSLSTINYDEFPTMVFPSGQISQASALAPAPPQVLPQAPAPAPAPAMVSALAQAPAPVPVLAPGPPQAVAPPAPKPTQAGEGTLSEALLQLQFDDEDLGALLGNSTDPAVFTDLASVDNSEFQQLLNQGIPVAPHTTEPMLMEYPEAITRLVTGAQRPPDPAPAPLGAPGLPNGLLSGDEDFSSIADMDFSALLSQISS

Take `CC(=O)[C@]1(O)CC[C@@]2(O)[C@]1(C)[C@H](OC(=O)c1ccc(O)cc1)C[C@@H]1[C@@]3(C)CC[C@H](OC(=O)CCl)CC3=CC[C@]12O`: the outcome (in [1]; in the assay with THP-1 [5]; in the assay on THP-1 [6]; in the assay on THP-1 [13]) was Active. Also, the inhibition entry (on Toll-like receptor 4 [2]; in [3]; on Toll-like receptor 4 [4]; in assay [7]; in assay [8]; in assay [12]) was “Active” throughout. The inhibition result (in assay [14]; at Toll-like receptor 4 [15]) was “Active” each time. In assay [9], the outcome was inactive. Further, the inhibition result (at Toll-like receptor 4 [10]; in assay [11]; at Toll-like receptor 4 [16]) was “inactive” throughout.
As for `COc1ccc(/C=C/C(=O)O[C@H]2CC[C@@]3(C)C(=CC[C@]4(O)[C@@H]3C[C@@H](OC(=O)/C=C(\C)C(C)C)[C@@]3(C)[C@]4(O)CC[C@@]3(O)C(C)=O)C2)cc1`, the inhibition entry (at Toll-like receptor 4 [17]; in assay [18]; at Toll-like receptor 4 [19]; in [20]; in assay [21]; in [22]) was “Dose-dependent effect” in each case. For the same molecule, the result in the assay with THP-1 [5] was Active. In assay [7], the inhibition entry was “Active”. In [9], the result was inactive. For the same molecule, the inhibition result (in [11]; on Toll-like receptor 4 [16]) was “inactive” each time.
